Reference: US11744844B2, “Selective estrogen receptor degraders” (Eli Lilly and Company, priority 2021, dated 2023)
Structures can show the parent of a compound that is named as a salt.

Assays:
[1] = biological target: T1, ERα (Homo sapiens, UniProt P03372); assay: ERα degradation assay in MCF7 cells; type: cell-based; settings: 24 hours incubation, read-out: Relative IC50, ERα degradation (% ER positive cells)
T1 construct: measure the degradation of ERα by a test compound in an ERα positive breast cancer cell line such as MCF7; host or cells: MCF7
T1 sequence (P03372 1-595): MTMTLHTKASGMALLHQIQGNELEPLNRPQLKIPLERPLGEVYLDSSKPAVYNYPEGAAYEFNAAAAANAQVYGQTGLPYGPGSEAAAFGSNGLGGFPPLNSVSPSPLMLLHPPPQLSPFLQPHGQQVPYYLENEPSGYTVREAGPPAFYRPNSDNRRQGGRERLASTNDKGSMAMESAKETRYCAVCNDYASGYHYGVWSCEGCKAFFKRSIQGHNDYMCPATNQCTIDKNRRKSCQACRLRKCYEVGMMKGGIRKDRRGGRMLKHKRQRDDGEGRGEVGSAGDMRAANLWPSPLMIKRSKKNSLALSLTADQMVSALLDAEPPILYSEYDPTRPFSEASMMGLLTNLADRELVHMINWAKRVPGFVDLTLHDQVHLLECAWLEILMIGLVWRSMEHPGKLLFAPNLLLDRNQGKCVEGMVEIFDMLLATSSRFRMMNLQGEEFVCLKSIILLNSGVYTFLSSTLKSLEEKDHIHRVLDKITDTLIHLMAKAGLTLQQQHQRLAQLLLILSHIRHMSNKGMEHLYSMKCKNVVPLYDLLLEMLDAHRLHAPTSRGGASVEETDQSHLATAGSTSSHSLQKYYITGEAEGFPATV
Method: The purpose of the following ERα degradation assay is to measure the degradation of ERα by a test compound in an ERα positive breast cancer cell line such as MCF7.
Culture MCF7 (purchased from ATCC HTB-22) cells in DMEM media supplemented with 10% FBS, 0.01 mg/mL human insulin 1 and 1% penicillin/streptomycin antibiotics and plate in 384-well flat-bottom plates at a density of 4,000 cells per well in phenol red free DMEM media (20 μL) containing 10% charcoal stripped FBS. Incubate the cells overnight in a cell culture incubator (5% CO2, 95% relative humidity and 37° C.) and allow the cells to attach to the plate. The following day dose the cells with the test compound. Use an Echo 555 acoustic dispenser to prepare test compound serial dilutions (1:3) in a range from 6 μM to 0.0003 μM. Dose the cells with the addition of 5 μL from the serial dilution plate to the cell plate producing a final DMSO concentration of 0.2% with a final test compound concentration dose range between 2 and 0.0001 μM. For the maximum point, use media containing 0.2% of DMSO and for the minimum point, use fulvestrant diluted at 2 μM final concentrations in the growth media containing 0.2% DMSO. […] Scan the plates with ACUMEN EXPLORER™ (Laser-scanning fluorescence microplate cytometer manufactured by TTP LABTECH LTD) to measure ERα. […]

[2] = system: MCF7 ESR1 wild type cells; assay: Cell proliferation assay in MCF7; type: cell-based; settings: Homo sapiens, 168 h, seven days, read-out: Relative IC50 MCF7 ESR1 wild type, cell proliferation
Method: The purpose of the following cell proliferation assays generally is to detect whether a test compound has effects on cell proliferation.
Seed MCF7 (purchased from ATCC HTB-22) cells at a density of 2,000 cells per well in DMEM phenol red free media 10% FBS (20 μL volume) (charcoal stripped) into a clear bottom 384-well cell culture plate. Plate MCF7-ESRY537N-682 (generated by CRISPR/Cas9 gene editing of ESr1 gene in MCF7 cells, clone #682) in DMEM media supplemented with 10% FBS, and 1% penicillin/streptomycin antibiotics at a density of 1000 cells per well. Incubate the plates at 37° C. and 5% CO2. The following day dose the cells with the test compound. Use an Echo 555 acoustic dispenser to prepare test compound serial dilutions (1:3) in a range from 60 μM to 0.003 μM. Dose the cells with the addition of 5 μL from the serial dilution plate to the cell plate, producing a final DMSO concentration of 0.2% with a final test compound concentration dose range between 20 and 0.001 μM. For the maximum point use media containing 0.2% of DMSO and for the minimum point use fulvestrant diluted at 2 μM final concentrations in the growth media containing 0.2% DMSO. After dosing with the test compound, incubate the cell plates at 37° C. and 5% CO2. […] Scan the plates with ACUMEN EXPLORER™ (Laser-scanning fluorescence microplate cytometer manufactured by TTP LABTECH LTD).

DC50 [1] [nM] | IC50 [2] [nM] | SMILES
115 ± 18.4 | 518 ± 49.9 | O=S(=O)(O)Oc1ccc2c3c(cnc2c1)-c1ccc(C(F)(F)F)cc1O[C@@H]3c1ccc(OCCN2CC(CF)C2)cc1 [Example 1, [(5R)-5-[4-[2-[3-(Fluoromethyl)azetidin-1-yl]ethoxy]phenyl]-8-(trifluoromethyl)-5H-chromeno[4,3-c]quinolin-2-yl]hydrogen sulfate]
211 ± 69.2 | 550 ± 238 | O=C(O)[C@H]1O[C@@H](Oc2ccc3c4c(cnc3c2)-c2ccc(C(F)(F)F)cc2O[C@@H]4c2ccc(OCCN3CC(CF)C3)cc2)[C@H](O)[C@@H](O)[C@@H]1O [Example 2, (2S,3S,4S,5R,6S)-6-[[(5R)-5-[4-[2-[3-(Fluoromethyl)azetidin-1-yl]ethoxy]phenyl]-8-(trifluoromethyl)-5H-chromeno[4,3-c]quinolin-2-yl]oxy]-3,4,5-trihydroxy-tetrahydropyran-2-carboxylic acid]
